The record followed here is paper PMC11579541, “In vitro, in vivo, and in silico approaches for evaluating the preclinical DMPK profiles of ammoxetine, a novel chiral serotonin and norepinephrine reuptake inhibitor” (Frontiers in Pharmacology, 2024).

Assay in all cases: CYP inhibition, cocktail-substrate method in HLM
Holding throughout (format): in vitro ADME
What all share (set-up): 0.5 mg/mL HLM, 1 mmol/L NADPH, and a cocktail of 10 probe substrates for 9 CYP isoforms; tissue BD (Woburn, USA); host or cells: pooled human liver microsomes

In one series the target is CYP 2C19 (Homo sapiens, UniProt P33261). Particulars: probe S-mephenytoin. The method, then:
(§1) To assess the CYP inhibition profiling of ammoxetine, a high-throughput assay based on the cocktail-substrate method was performed, as described in the literature ([Kim et al., 2005]; [Kozakai et al., 2014]). Microsomal incubations were conducted in triplicate for 30 min at 37°C in a reaction system (200 μL) consisting of […] potassium phosphate buffer (pH 7.4), 0.5 mg/mL HLM, 1 mmol/L NADPH, and a cocktail of 10 probe substrates for 9 CYP isoforms. The final concentration of each CYP-specific substrate was chosen to be close to the Michaelis-Menten constant (K m ) value of the respective substrate ([Kim et al., 2005]; [Lee et al., 2024]). For instance, phenacetin (CYP 1A2) was used at a concentration of 50 μmol/L, coumarin (CYP 2A6) at 5 μmol/L, bupropion (CYP 2B6) at 50 μmol/L, amodiaquine (CYP 2C8) at 5 μmol/L, tolbutamide (CYP 2C9) at 100 μmol/L, S-mephenytoin (CYP 2C19) at 100 μmol/L, dextromethorphan (CYP 2D6) at 5 μmol/L, chlorzoxazone (CYP 2E1) at 50 μmol/L, and testosterone and midazolam (CYP 3A4) at 50 μmol/L. Ammoxetine was evaluated at five concentrations: 0.1, 1, 10, 50, and 100 μmol/L. Additionally, a blank control without ammoxetine was included. The incubation was terminated by adding an equal volume of ice-cold acetonitrile/methanol (1:1, v/v) along with the IS, dexmedetomidine (1 ng/mL). After a 20-fold dilution, the mixture was centrifuged at 13,800×g for 10 min at 4°C. The supernatants were used to measure the levels of metabolites from the respective probe substrates using an LC-MS-MS method. The half-maximal inhibitory concentration (IC50) values were subsequently calculated.

The next series concerns the target CYP 2C9 (Homo sapiens, UniProt P11712). The conditions noted are these: probe tolbutamide. As to the method: as §1
In another series the target is T1, CYP 1A2 (Homo sapiens, UniProt P05177).
T1 sequence (P05177 1-516): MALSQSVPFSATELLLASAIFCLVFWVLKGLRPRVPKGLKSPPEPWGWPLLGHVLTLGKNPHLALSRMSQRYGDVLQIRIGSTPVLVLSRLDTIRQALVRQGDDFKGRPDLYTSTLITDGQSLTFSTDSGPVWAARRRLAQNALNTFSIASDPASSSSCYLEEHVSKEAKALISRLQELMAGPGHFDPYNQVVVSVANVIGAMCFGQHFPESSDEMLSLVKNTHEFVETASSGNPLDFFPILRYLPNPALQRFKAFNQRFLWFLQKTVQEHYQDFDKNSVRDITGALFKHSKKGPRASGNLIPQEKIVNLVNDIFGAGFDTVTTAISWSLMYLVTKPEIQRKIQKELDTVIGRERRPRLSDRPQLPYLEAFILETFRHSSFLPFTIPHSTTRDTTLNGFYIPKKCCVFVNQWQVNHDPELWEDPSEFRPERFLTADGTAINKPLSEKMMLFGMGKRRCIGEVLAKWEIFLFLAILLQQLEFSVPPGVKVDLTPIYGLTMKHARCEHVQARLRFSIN
The method, then:
as §1

In another series the target is CYP 2D6 (Homo sapiens, UniProt P10635). The method, then:
as §1

The target of the next series is CYP 3A4 (Homo sapiens, UniProt P08684). The conditions noted are these: probes testosterone and midazolam. The method, then: as §1
CYP 3A4, sequence (P08684 whole entry): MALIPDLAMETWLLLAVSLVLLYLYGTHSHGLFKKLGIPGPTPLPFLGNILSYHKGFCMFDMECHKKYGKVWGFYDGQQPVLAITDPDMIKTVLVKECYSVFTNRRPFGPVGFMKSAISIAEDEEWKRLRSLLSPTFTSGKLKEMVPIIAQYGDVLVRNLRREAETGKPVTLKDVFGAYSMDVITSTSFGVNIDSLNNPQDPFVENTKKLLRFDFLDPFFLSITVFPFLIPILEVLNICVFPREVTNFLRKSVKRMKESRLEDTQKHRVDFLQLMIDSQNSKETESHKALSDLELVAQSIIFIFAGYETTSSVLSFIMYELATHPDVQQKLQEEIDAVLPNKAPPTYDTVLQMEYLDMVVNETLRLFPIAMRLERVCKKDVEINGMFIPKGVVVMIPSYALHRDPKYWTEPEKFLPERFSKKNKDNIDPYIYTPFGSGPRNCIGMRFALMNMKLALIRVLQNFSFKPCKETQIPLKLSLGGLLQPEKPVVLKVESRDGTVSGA

CYP 2D6, sequence (P10635 whole entry): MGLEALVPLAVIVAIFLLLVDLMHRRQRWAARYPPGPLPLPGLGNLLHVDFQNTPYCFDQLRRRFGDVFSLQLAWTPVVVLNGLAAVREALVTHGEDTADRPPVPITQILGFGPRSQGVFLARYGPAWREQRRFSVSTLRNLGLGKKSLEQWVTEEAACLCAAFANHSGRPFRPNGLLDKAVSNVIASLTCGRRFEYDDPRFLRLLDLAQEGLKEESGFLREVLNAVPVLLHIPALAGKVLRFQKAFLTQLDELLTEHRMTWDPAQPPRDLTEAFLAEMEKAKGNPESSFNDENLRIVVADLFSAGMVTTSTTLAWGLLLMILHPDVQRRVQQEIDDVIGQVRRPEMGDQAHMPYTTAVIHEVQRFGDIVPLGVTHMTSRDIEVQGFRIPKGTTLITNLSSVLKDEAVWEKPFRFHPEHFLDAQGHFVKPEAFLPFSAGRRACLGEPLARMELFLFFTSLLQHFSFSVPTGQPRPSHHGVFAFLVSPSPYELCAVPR
CYP 2C19, sequence (P33261 whole entry, canonical isoform): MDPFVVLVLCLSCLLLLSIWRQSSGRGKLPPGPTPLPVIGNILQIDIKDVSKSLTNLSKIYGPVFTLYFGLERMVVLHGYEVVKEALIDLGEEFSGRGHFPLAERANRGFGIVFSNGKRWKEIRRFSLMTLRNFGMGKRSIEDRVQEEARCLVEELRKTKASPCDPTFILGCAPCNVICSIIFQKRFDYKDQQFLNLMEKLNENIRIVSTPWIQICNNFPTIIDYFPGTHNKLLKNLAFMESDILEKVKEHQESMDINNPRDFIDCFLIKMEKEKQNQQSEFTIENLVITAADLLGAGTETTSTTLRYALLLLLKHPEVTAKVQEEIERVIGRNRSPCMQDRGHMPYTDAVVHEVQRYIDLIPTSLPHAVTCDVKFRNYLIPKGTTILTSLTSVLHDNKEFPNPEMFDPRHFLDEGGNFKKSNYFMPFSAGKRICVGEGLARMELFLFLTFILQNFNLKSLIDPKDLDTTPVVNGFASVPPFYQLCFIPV
CYP 2C9, sequence (P11712 whole entry): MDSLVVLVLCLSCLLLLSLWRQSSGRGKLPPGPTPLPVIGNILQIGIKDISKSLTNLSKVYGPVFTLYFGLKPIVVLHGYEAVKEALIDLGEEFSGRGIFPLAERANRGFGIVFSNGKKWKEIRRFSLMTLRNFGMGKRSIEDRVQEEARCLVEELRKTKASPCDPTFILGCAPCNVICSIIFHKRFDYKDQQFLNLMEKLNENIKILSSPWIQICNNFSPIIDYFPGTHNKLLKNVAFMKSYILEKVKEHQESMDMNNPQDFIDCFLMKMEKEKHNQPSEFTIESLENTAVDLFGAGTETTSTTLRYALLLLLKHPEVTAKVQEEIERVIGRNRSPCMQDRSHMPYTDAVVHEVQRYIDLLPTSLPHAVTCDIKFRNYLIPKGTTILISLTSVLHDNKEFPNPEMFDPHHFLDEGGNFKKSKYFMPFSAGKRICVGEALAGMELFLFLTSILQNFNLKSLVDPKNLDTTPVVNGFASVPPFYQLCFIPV

On to `CNCC[C@H](Oc1cccc2c1OCO2)c1cccs1` [ammoxetine], for which the IC50 at CYP 2C19 is above 100 µM; against CYP 2C9, above 100 µM; against CYP 1A2 (HLM, probe phenacetin), above 100 µM; at CYP 2D6 (HLM, probe dextromethorphan) it was above 100 µM; at CYP 3A4, above 100 µM. Also, the “probe substrate levels, % of the original blank group” value at CYP 1A2 (ammoxetine 100 μmol/L) is recorded as around 72.30%; at CYP 2D6 (ammoxetine 100 μmol/L) it was “approximately 65.86%”.
